ChEMBL document CHEMBL4028908, “The Discovery of 3-((4-Chloro-3-methoxyphenyl)amino)-1-((3R,4S)-4-cyanotetrahydro-2H-pyran-3-yl)-1H-pyrazole-4-carboxamide, a Highly Ligand Efficient and Efficacious Janus Kinase 1 Selective Inhibitor with Favorable Pharmacokinetic Properties” (J Med Chem, 2017)
≈ marks a conversion by molar mass, not a printed value.

Assays:
[1] = target: T1, Tyrosine-protein kinase JAK1 (Homo sapiens, UniProt P23458)
[2] = Lipophilicity, log D of the compound at 100 uM at pH 7 by HPLC/DAD analysis; format: physicochemical; settings: buffer
Homo sapiens = species on record: Homo sapiens; assay: Selectivity ratio of IC50 for GST-tagged recombinant human JAK2 catalytic domain to IC50 for GST-tagged recombinant human JAK1 catalytic domain
[3] = target: Non-receptor tyrosine-protein kinase TYK2 (Homo sapiens, UniProt P29597)
Non-receptor tyrosine-protein kinase TYK2, sequence (P29597 whole entry): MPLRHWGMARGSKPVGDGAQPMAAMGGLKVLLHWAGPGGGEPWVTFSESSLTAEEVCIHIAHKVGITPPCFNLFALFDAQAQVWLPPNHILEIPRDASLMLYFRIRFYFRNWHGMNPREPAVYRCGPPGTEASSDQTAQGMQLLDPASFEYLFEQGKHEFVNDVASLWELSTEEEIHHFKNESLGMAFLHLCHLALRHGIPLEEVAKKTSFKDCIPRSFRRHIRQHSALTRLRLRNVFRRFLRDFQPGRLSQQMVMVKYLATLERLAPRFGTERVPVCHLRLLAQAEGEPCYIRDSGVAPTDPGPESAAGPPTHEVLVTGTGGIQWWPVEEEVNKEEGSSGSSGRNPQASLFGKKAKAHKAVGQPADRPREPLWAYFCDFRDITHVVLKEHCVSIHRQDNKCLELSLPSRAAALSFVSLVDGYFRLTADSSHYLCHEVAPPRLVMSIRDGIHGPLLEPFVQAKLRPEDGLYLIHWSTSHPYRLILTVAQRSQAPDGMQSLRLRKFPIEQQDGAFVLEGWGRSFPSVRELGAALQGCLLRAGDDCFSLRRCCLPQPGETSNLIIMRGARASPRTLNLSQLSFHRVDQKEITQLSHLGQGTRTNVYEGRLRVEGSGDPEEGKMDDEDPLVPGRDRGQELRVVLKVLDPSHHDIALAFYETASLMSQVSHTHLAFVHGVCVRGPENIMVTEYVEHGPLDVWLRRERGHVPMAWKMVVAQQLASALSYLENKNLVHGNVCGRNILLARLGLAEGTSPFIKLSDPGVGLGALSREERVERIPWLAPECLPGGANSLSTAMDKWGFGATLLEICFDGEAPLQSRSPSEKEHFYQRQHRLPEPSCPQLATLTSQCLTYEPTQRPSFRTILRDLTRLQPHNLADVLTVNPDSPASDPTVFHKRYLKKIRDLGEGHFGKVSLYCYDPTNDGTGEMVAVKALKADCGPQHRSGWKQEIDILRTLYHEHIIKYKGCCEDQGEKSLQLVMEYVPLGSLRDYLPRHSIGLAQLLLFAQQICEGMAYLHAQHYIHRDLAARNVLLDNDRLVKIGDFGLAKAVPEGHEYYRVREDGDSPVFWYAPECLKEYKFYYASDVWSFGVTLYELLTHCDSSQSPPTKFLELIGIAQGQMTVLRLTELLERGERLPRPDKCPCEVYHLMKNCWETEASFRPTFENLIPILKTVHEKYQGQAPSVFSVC

[4] = Intrinsic clearance in rat hepatocytes after 120 mins by LC-MS/MS analysis; format: ADME, cell-based, Hepatocyte; settings: read-out: CLH
[5] = target: T1, Tyrosine-protein kinase JAK1; remark: listed apart in the source
[6] = Intrinsic clearance in human hepatocytes after 120 mins by LC-MS/MS analysis; format: ADME, cell-based, Hepatocyte; settings: read-out: CLH
[7] = target: T2, Tyrosine-protein kinase JAK3 (Homo sapiens, UniProt P52333)
T2 sequence (P52333 whole entry): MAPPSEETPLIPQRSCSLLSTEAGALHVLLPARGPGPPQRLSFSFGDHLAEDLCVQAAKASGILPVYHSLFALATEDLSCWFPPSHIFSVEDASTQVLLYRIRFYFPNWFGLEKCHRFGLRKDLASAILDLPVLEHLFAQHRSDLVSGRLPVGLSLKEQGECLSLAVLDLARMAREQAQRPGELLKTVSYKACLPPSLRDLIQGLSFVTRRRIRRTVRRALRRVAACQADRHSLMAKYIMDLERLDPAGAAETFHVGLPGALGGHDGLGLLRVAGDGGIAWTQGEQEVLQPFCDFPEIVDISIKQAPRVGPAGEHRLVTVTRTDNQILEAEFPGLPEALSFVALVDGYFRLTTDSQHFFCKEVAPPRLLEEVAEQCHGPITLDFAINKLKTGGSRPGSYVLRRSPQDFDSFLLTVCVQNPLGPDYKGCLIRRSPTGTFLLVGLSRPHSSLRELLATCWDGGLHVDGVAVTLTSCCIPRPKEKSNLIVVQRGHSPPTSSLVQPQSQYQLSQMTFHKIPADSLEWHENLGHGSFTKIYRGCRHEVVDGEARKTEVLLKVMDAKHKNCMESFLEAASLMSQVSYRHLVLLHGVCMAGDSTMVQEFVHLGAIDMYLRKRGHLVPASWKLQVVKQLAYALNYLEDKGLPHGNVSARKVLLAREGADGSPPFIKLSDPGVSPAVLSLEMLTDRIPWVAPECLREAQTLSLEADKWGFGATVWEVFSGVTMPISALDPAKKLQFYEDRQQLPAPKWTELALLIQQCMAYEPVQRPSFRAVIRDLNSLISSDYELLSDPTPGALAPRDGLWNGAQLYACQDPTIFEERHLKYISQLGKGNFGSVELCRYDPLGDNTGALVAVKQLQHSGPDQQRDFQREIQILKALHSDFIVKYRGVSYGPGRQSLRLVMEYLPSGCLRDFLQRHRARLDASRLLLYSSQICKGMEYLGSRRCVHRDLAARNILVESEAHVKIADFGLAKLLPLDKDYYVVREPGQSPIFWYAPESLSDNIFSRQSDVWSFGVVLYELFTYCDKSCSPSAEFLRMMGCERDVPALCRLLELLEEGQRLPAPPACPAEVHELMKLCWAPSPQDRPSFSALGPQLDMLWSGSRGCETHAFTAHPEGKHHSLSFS

[8] = Solubility of the compound in FaSSIF solution at 100 uM after overnight incubation by UPLC/DAD analysis; format: physicochemical
[9] = target: T3, Tyrosine-protein kinase JAK2 (Homo sapiens, UniProt O60674)
T3 sequence (O60674 whole entry): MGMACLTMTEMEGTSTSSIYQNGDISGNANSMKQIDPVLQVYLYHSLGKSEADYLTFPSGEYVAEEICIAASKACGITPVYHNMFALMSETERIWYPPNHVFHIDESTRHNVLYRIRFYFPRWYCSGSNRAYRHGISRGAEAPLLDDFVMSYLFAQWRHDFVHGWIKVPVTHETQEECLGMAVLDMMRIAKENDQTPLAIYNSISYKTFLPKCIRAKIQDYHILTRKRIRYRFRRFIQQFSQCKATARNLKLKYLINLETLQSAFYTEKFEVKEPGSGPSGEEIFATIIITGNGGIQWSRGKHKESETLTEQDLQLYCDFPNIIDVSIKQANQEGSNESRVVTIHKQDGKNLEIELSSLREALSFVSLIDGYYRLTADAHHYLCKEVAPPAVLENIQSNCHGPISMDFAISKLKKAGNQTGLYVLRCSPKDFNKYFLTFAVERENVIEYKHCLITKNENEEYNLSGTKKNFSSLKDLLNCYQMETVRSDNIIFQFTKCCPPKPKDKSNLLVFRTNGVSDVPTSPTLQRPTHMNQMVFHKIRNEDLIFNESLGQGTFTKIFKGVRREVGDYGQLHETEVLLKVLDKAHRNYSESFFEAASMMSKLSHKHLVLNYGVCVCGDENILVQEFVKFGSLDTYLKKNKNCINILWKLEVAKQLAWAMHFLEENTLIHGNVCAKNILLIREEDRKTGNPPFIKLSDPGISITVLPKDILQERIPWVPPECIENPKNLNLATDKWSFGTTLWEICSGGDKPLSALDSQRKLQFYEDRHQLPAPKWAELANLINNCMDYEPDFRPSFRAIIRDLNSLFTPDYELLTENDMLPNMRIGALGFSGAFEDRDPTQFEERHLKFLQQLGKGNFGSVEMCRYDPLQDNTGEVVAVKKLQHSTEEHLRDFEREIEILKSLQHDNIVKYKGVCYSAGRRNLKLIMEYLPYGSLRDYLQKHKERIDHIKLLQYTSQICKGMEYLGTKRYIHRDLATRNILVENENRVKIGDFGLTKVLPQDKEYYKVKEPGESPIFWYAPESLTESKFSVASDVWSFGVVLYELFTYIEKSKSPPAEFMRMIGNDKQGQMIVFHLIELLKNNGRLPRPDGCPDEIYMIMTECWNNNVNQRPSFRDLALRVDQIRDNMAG

[10] = target: T3, Tyrosine-protein kinase JAK2; remark: listed apart in the source
[11] = target: T4, Voltage-gated inwardly rectifying potassium channel KCNH2 (Homo sapiens, UniProt Q12809)
T4 sequence (Q12809 whole entry): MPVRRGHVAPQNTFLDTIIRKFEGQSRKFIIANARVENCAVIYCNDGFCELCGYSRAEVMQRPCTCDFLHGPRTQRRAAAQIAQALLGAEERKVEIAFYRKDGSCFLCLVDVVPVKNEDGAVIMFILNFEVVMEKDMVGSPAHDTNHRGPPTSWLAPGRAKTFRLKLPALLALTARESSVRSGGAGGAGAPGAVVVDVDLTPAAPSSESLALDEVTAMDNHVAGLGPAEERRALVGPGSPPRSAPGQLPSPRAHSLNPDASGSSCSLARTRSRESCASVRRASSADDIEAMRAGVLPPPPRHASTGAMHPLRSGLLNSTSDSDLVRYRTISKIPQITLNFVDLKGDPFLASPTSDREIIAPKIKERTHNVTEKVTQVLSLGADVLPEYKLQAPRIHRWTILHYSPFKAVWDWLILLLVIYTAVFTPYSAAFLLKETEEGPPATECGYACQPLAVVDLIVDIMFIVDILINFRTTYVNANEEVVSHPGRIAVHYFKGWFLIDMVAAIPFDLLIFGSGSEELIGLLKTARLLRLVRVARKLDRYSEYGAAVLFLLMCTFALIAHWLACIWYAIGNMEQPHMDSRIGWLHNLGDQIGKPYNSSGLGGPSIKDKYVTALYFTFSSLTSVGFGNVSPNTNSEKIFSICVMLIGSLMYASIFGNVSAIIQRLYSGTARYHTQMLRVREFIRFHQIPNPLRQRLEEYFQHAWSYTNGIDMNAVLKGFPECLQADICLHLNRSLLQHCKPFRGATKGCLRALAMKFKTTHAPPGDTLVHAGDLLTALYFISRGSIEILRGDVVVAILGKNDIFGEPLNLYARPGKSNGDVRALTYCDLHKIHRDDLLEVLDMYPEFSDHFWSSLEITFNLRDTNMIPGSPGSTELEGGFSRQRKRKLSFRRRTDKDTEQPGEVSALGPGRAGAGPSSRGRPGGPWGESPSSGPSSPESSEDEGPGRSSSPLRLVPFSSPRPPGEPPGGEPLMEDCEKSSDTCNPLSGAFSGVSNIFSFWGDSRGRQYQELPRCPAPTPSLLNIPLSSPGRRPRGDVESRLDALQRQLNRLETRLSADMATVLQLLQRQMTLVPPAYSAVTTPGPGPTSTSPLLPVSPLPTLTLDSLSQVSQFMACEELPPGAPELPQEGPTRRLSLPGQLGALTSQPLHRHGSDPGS

[12] = Oral bioavailability in rat at 1 mg/kg; format: ADME, organism-based; settings: in vivo
[13] = Apparent permeability of the compound by cell-based assay; format: physicochemical; settings: not told
[14] = Protein binding in cynomolgus monkey plasma; format: ADME, cell-free, Macaca fascicularis; settings: read-out: PPB (converted)
Canis familiaris = assay: Unbound clearance in dog at 0.25 mg/kg, iv or 0.5 mg/kg, po; format: ADME, organism-based, Canis lupus familiaris; settings: in vivo
Rattus norvegicus [15] = assay: Unbound clearance in rat at 0.5 mg/kg, iv or 1 mg/kg, po; format: ADME, organism-based; settings: in vivo
[16] = Intrinsic clearance in cynomolgus monkey hepatocytes after 120 mins by LC-MS/MS analysis; format: ADME, cell-based, Macaca fascicularis, Hepatocyte; settings: read-out: CLH
[17] = Plasma clearance in rat at 0.5 mg/kg, iv or 1 mg/kg, po; format: ADME, organism-based
[18] = Volume of distribution at steady state in dog at 0.25 mg/kg, iv or 0.5 mg/kg, po; format: ADME, organism-based, Canis lupus familiaris; settings: in vivo, read-out: Vdss
[19] = Intrinsic clearance in dog hepatocytes after 120 mins by LC-MS/MS analysis; format: ADME, cell-based, Canis lupus familiaris, Hepatocyte; settings: read-out: CLH
[20] = Oral bioavailability in dog at 0.5 mg/kg; format: ADME, organism-based, Canis lupus familiaris; settings: in vivo
[21] = Plasma clearance in cynomolgus monkey at 0.25 mg/kg, iv or 0.5 mg/kg, po; format: ADME, organism-based, Macaca fascicularis
[22] = Protein binding in rat plasma; format: ADME, cell-free; settings: read-out: PPB (converted)
[23] = Half life in cynomolgus monkey at 0.25 mg/kg, iv or 0.5 mg/kg, po; format: ADME, organism-based, Macaca fascicularis; settings: in vivo
[24] = Half life in rat at 0.5 mg/kg, iv or 1 mg/kg, po; format: ADME, organism-based; settings: in vivo
[25] = Plasma clearance in dog at 0.25 mg/kg, iv or 0.5 mg/kg, po; format: ADME, organism-based, Canis lupus familiaris
Cynomolgus monkey = assay: Unbound clearance in cynomolgus monkey at 0.25 mg/kg, iv or 0.5 mg/kg, po; format: ADME, organism-based, Macaca fascicularis; settings: in vivo
[26] = target: T1, Tyrosine-protein kinase JAK1; assay: Inhibition of JAK1 in human whole blood assessed as decrease in cytokine-stimulated STAT phosphorylation preincubated for 20 mins followed by cytokine addition measured after 30 mins
[27] = Half life in dog at 0.25 mg/kg, iv or 0.5 mg/kg, po; format: ADME, organism-based, Canis lupus familiaris; settings: in vivo
Rattus norvegicus [28] = assay: Antiinflammatory activity in po dosed Lewis rat type 2 bovine collagen-induced arthritis model assessed as inhibition of paw swelling administered as bid on day 17; format: functional, organism-based
[29] = Volume of distribution at steady state in cynomolgus monkey at 0.25 mg/kg, iv or 0.5 mg/kg, po; format: ADME, organism-based, Macaca fascicularis; settings: in vivo, read-out: Vdss
[30] = Oral bioavailability in cynomolgus monkey at 0.5 mg/kg; format: ADME, organism-based, Macaca fascicularis; settings: in vivo
[31] = Volume of distribution at steady state in rat at 0.5 mg/kg, iv or 1 mg/kg, po; format: ADME, organism-based; settings: in vivo, read-out: Vdss
[32] = Protein binding in dog plasma; format: ADME, cell-free, Canis lupus familiaris; settings: read-out: PPB (converted)
[33] = target: T4, Voltage-gated inwardly rectifying potassium channel KCNH2; assay: Inhibition of human ERG expressed in HEK293 cells by patch clamp method; format: cell-based

T1 sequence (P23458 whole entry): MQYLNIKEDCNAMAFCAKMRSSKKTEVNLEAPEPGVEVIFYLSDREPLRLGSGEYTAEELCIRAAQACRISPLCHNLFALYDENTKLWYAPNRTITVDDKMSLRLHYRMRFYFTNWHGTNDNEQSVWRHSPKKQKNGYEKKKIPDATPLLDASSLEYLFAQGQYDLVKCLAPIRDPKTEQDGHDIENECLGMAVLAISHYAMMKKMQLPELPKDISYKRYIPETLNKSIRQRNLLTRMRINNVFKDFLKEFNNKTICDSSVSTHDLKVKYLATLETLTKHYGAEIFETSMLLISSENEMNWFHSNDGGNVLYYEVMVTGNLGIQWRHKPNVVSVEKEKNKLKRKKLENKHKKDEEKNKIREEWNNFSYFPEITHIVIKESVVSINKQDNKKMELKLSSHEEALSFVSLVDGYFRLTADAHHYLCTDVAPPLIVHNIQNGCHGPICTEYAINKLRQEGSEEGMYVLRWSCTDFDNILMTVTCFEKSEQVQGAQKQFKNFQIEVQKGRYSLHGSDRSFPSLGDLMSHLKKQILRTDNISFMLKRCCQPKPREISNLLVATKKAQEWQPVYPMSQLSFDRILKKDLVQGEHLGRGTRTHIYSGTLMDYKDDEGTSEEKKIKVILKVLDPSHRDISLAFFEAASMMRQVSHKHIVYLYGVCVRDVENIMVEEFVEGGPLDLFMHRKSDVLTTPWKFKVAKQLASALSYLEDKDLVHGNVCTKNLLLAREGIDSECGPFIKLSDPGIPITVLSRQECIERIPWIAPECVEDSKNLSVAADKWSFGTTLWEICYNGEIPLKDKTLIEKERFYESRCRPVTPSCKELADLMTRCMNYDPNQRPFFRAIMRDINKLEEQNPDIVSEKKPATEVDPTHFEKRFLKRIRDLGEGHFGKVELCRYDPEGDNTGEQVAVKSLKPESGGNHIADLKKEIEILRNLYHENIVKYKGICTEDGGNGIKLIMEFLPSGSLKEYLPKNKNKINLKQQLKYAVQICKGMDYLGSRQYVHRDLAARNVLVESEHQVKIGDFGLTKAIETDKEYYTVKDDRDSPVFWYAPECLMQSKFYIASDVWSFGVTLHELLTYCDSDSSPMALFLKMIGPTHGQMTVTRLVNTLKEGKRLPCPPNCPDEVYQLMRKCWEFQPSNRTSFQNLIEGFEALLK

## N#C[C@H]1CCOC[C@@H]1n1cc(C(N)=O)c(Nc2ccc(F)cc2)n1
[1]
  IC50: 31 nM
[2]
  logD at 100 µM: 2.18
Homo sapiens
  Ratio IC50: 7
[3]
  IC50: 1.8 nM
[4]
  CLint scaled: < 40 mL/min/kg
[5]
  IC50: 0.3 nM
[6]
  CLint scaled: < 20 mL/min/kg
[7]
  IC50: 304 nM
[8]
  solubility at 100 µM: 42 µM (≈ 13.8 µg/mL)
[9]
  IC50: 334 nM
[10]
  IC50: 2 nM
[11]
  IC50: 40000 nM
[12]
  bioavailability: 40%

## N#C[C@H]1C[C@@H](N2CCC2)CC[C@@H]1n1cc(C(N)=O)c(Nc2ccc([C@H](O)C(F)(F)F)cc2)n1
[2]
  logD at 100 µM: 1.54
[13]
  Papp: 3.3 ×10⁻⁶ cm/s
[12]
  bioavailability: 0%

## N#Cc1ccc(Nc2nn([C@H]3COCC[C@@H]3C#N)cc2C(N)=O)cc1
[14]
  fraction unbound: 0.21
Canis familiaris
  CL free: 67 mL/min/kg
Rattus norvegicus [15]
  CL free: 100 mL/min/kg
[1]
  IC50: 13 nM
[16]
  CLint scaled: 6 mL/min/kg
[2]
  logD at 100 µM: 1.77
[17]
  clearance: 19 mL/min/kg
[18]
  Vd: 2.7 L/kg
[19]
  CLint scaled: 20 mL/min/kg
[20]
  bioavailability: 51%
Homo sapiens
  Ratio IC50: 8
[21]
  clearance: 2.4 mL/min/kg
[3]
  IC50: 1.2 nM
[22]
  fraction unbound: 0.19
[23]
  half-life: 5.6 h
[24]
  half-life: 1.4 h
[4]
  CLint scaled: 6 mL/min/kg
[25]
  clearance: 12 mL/min/kg
[5]
  IC50: 0.15 nM
[6]
  CLint scaled: 3 mL/min/kg
[7]
  IC50: 230 nM
Cynomolgus monkey
  CL free: 12 mL/min/kg
[26]
  IC50: 220 nM
[27]
  half-life: 2.6 h
Rattus norvegicus [28]
  inhibition: Dose-dependent effect
[29]
  Vd: 1 L/kg
[8]
  solubility at 100 µM: 130 µM (≈ 43.7 µg/mL)
[9]
  IC50: 89 nM
[10]
  IC50: 1.2 nM
[30]
  bioavailability: 18%
[31]
  Vd: 2.6 L/kg
[11]
  IC50: 40000 nM
[12]
  bioavailability: 47%
[32]
  fraction unbound: 0.18

## N#C[C@H]1CCCC[C@@H]1n1cc(C(N)=O)c(Nc2ccccc2)n1
Rattus norvegicus [15]
  CL free: 12100 mL/min/kg
[2]
  logD at 100 µM: 2.66
[17]
  clearance: 484 mL/min/kg
[4]
  CLint scaled: 160 mL/min/kg
[6]
  CLint scaled: 25 mL/min/kg
[11]
  IC50: > 60000 nM

## Cn1cc(-c2ccc(Nc3nn([C@H]4COCC[C@@H]4C#N)cc3C(N)=O)cc2)cn1
[1]
  IC50: 6 nM
[2]
  logD at 100 µM: 1.48
Homo sapiens
  Ratio IC50: 23
[3]
  IC50: 0.2 nM
[4]
  CLint scaled: 55 mL/min/kg
[5]
  IC50: 0.02 nM
[6]
  CLint scaled: < 20 mL/min/kg
[7]
  IC50: 91 nM
[8]
  solubility at 100 µM: 42 µM (≈ 16.4 µg/mL)
[9]
  IC50: 39 nM
[10]
  IC50: 0.5 nM
[11]
  IC50: > 60000 nM
[12]
  bioavailability: 18%

## COc1cc(Nc2nn([C@H]3COCC[C@@H]3C#N)cc2C(N)=O)ccc1Cl
[14]
  fraction unbound: 0.033
Rattus norvegicus [15]
  CL free: 350 mL/min/kg
[1]
  IC50: 13 nM
[16]
  CLint scaled: 36 mL/min/kg
[2]
  logD at 100 µM: 2.34
[17]
  clearance: 21 mL/min/kg
[18]
  Vd: 1.2 L/kg
[19]
  CLint scaled: 122 mL/min/kg
[20]
  bioavailability: 29%
Homo sapiens
  Ratio IC50: 39
[21]
  clearance: 19 mL/min/kg
[3]
  IC50: 12 nM
[22]
  fraction unbound: 0.06
[23]
  half-life: 2.8 h
[24]
  half-life: 1.6 h
[4]
  CLint scaled: 35 mL/min/kg
[25]
  clearance: 14 mL/min/kg
[5]
  IC50: 0.1 nM
[6]
  CLint scaled: 6 mL/min/kg
[7]
  IC50: 397 nM
Cynomolgus monkey
  CL free: 581 mL/min/kg
[26]
  IC50: 1760 nM
[27]
  half-life: 1.1 h
Rattus norvegicus [28]
  inhibition: Dose-dependent effect
[29]
  Vd: 2.8 L/kg
[9]
  IC50: 320 nM
[30]
  bioavailability: 32%
[31]
  Vd: 2.7 L/kg
[12]
  bioavailability: 47%

## N#C[C@H]1CCOC[C@@H]1n1cc(C(N)=O)c(Nc2ccc(Cl)cc2)n1
[2]
  logD at 100 µM: 2.57
[3]
  IC50: 2 nM
[4]
  CLint scaled: 9 mL/min/kg
[6]
  CLint scaled: 85 mL/min/kg
[7]
  IC50: 256 nM
[8]
  solubility at 100 µM: 39 µM (≈ 13.5 µg/mL)
[11]
  IC50: 40000 nM
[12]
  bioavailability: 71%

## N#C[C@H]1CCOC[C@@H]1n1cc(C(N)=O)c(Nc2ccccc2)n1
Rattus norvegicus [15]
  CL free: 110 mL/min/kg
[1]
  IC50: 33 nM
[2]
  logD at 100 µM: 2.08
[17]
  clearance: 20 mL/min/kg
[3]
  IC50: 2.9 nM
[4]
  CLint scaled: 70 mL/min/kg
[5]
  IC50: 0.4 nM
[6]
  CLint scaled: 6 mL/min/kg
[7]
  IC50: 361 nM
[8]
  solubility at 100 µM: 18 µM (≈ 5.6 µg/mL)
[11]
  IC50: > 60000 nM
[12]
  bioavailability: 79%

## CN(C)[C@H]1CC[C@H](n2cc(C(N)=O)c(Nc3ccc(Cl)cc3)n2)[C@@H](C#N)C1
[1]
  IC50: 64 nM
[2]
  logD at 100 µM: 2.15
[17]
  clearance: 41 mL/min/kg
[18]
  Vd: 8 L/kg
[20]
  bioavailability: 42%
[3]
  IC50: 13 nM
[33]
  IC50: 3000 nM
[4]
  CLint scaled: 109 mL/min/kg
[25]
  clearance: 21 mL/min/kg
[5]
  IC50: 1.5 nM
[6]
  CLint scaled: 26 mL/min/kg
[7]
  IC50: 1230 nM
[31]
  Vd: 11 L/kg
[11]
  IC50: 12200 nM
[12]
  bioavailability: 16%
